Reference: US20120328569A1, “INHIBITORS OF HEPATITIS C VIRUS NS5B POLYMERASE” (priority 2010, published 2012)

Test system: HCV genotype 1b replicon
Assay: HCV replicon assay, cell ELISA with antibody to replicon-encoded NS3/4A (genotype 1b replicon)
Format: cell-based, hepatitis C virus
Details: Hepatitis C virus, 96 h, read-out: 1b IC50(nM), HCV genotype 1b replicon; 96 hours incubation; NS3/4A cell ELISA
Summary of the method: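 Replicon-harbouring cells carrying neomycin phosphotransferase were incubated 96 h with a compound dilution series without G418. Replication was quantified indirectly by a cell ELISA detecting replicon-encoded NS3/4A. IC50 values were calculated relative to DMSO control with a four-parameter fit.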

Q: `CNC(=O)c1c(-c2ccc(F)cc2)oc2cc(N(C)S(C)(=O)=O)c(-c3ccc(OC)c(-c4nc5c(F)cccc5o4)c3)cc12` [Example 411, 5-[3-(4-Fluoro-benzooxazol-2-yl)-4-methoxy-phenyl]-2-(4-fluoro-phenyl)-6-(methanesulfonyl-methyl-amino)-benzofuran-3-carboxylic acid methylamide] was tested. Which IC50 did it give?
A: 7.1 nM

Q: With `CNC(=O)c1c(-c2ccc(F)cc2)oc2cc(N(C)S(C)(=O)=O)c(-c3ccc(S(C)(=O)=O)c(-c4nc5c(Cl)cccc5o4)c3)cc12` [Example 420] as the molecule, how does the IC50 read?
A: 5.08 nM

Q: Which IC50 does the source give for `CNC(=O)c1c(-c2ccc(F)cc2)oc2cc(N(C)S(C)(=O)=O)c(-c3cc(-c4nc5c(F)cccc5o4)c4oc(=O)[nH]c4c3)cc12` [Example 425] here?
A: 3.04 nM

Q: With `CNC(=O)c1c(-c2ccc(F)cc2)oc2cc(N(C)S(C)(=O)=O)c(-c3ccc(OC)c(-c4nc5c(CC#N)cccc5[nH]4)c3)cc12` [Example 427] as the molecule, how does the IC50 read?
A: 4.35 nM

Q: With `CNC(=O)c1c(-c2ccc(F)cc2)oc2cc(N(C)S(C)(=O)=O)c(-c3ccc(OC)c(-c4nc5c(C(C)(C)C#N)cccc5o4)c3)cc12` [Example 428] as the molecule, how does the IC50 read?
A: 29.1 nM

Q: For `CNC(=O)c1c(-c2ccc(F)cc2)oc2cc(N(C)S(C)(=O)=O)c(-c3ccc(CC#N)c(-c4nc5c(F)cccc5o4)c3)cc12` [Example 429], which IC50 is on record?
A: 4.91 nM

Q: Which IC50 does the source give for `CNC(=O)c1c(-c2ccc(F)cc2)oc2cc(N(C)S(C)(=O)=O)c(-c3cc4c(c(-c5nc6c(F)cccc6o5)c3)OCCO4)cc12` [Example 436] here?
A: 4.37 nM

Q: `CNC(=O)c1c(-c2ccc(F)cc2)oc2cc(N(C)S(C)(=O)=O)c(-c3ccc(-c4ccco4)c(-c4nc5c(F)cccc5o4)c3)cc12` [Example 478] was tested. Which IC50 did it give?
A: 8.65 nM

Q: With `CNC(=O)c1c(-c2ccc(F)cc2)oc2cc(N(C)S(C)(=O)=O)c(-c3ccc(-c4cnco4)c(-c4nc5c(F)cccc5o4)c3)cc12` [Example 479] as the molecule, how does the IC50 read?
A: 1.95 nM

Q: `CNC(=O)c1c(-c2ccc(F)cc2)oc2cc(N(C)S(C)(=O)=O)c(-c3ccc(-c4cnco4)c(-c4nc5c(Cl)cccc5o4)c3)cc12` [Example 480] was tested. Which IC50 did it give?
A: 3.01 nM

Q: For `CNC(=O)c1c(-c2ccc(F)cc2)oc2cc(N(C)S(C)(=O)=O)c(-c3ccc(N4CCOC4=O)c(-c4nc5c(F)cccc5o4)c3)cc12` [Example 483], which IC50 is on record?
A: 2.48 nM

Q: Which IC50 does the source give for `CNC(=O)c1c(-c2ccc(F)cc2)oc2cc(N(C)S(C)(=O)=O)c(-c3ccc(N4CCNC4=O)c(-c4nc5c(F)cccc5o4)c3)cc12` [Example 484] here?
A: 3.31 nM

Q: `CNC(=O)c1c(-c2ccc(F)cc2)oc2cc(N(C)S(C)(=O)=O)c(-c3csc(-c4nc5c(F)cccc5o4)c3)cc12` [Example 504] was tested. Which IC50 did it give?
A: 1.53 nM

Q: Which IC50 does the source give for `CNC(=O)c1c(-c2ccc(F)cc2)oc2cc(N(C)S(C)(=O)=O)c(-c3cnc(OC)c(-c4nc5c(F)cccc5o4)c3)cc12` [Example 507] here?
A: 0.68 nM

Q: With `CNC(=O)c1c(-c2ccc(F)cc2)oc2cc(N(C)S(C)(=O)=O)c(-c3cc(-c4nc5ncccc5o4)ccn3)cc12` [Example 509] as the molecule, how does the IC50 read?
A: 3 nM

Q: `CNC(=O)c1c(-c2ccc(F)cc2)oc2cc(N(C)S(C)(=O)=O)c(-c3cccc(-c4nc5c(o4)CCCC5(F)F)c3)cc12` [Example 515] was tested. Which IC50 did it give?
A: 3.99 nM

Q: For `CNC(=O)c1c(-c2ccc(F)cc2)oc2cc(N(C)S(C)(=O)=O)c(-c3cccc(-c4cc5c(o4)CCN(C(C)=O)C5)c3)cc12` [Example 517], which IC50 is on record?
A: 7 nM

Q: With `CNC(=O)c1c(-c2ccc(F)cc2)oc2cc(N(C)S(C)(=O)=O)c(C#Cc3ccccc3)cc12` [Example 547] as the molecule, how does the IC50 read?
A: 23.2 nM

Q: With `CNC(=O)c1c(-c2ccc(F)cc2)oc2cc(N(C)S(C)(=O)=O)c(-c3cccc(-n4nc5ccccc5c4-c4cccnc4)c3)cc12` [Example 549] as the molecule, how does the IC50 read?
A: 65.9 nM

Q: How did the IC50 turn out when `CNC(=O)c1c(-c2ccc(F)cc2)oc2cc(N(C)S(C)(=O)=O)c(-c3ccc(OC)c(-c4nc5cc(F)cc(F)c5o4)c3)cc12` [Example 551] was run?
A: 1.3 nM

Q: With `CNC(=O)c1c(-c2ccc(F)cc2)oc2cc(N(C)S(C)(=O)=O)c(-c3cc(C#N)cc(-c4cc5ccccc5[nH]4)c3)cc12` [Example 558] as the molecule, how does the IC50 read?
A: 5.81 nM

Q: Which IC50 does the source give for `CNC(=O)c1c(-c2ccc(F)cc2)oc2cc(N(C)S(C)(=O)=O)c(-c3ccc4c(c3)-c3c(Cl)c5ccccc5n3C(C3CC3)O4)cc12` (stereo not drawn) [Example 588] here?
A: 50.4 nM

Q: For `CNC(=O)c1c(-c2ccc(F)cc2)oc2cc(N(C)S(C)(=O)=O)c(-c3ccc4c(c3)-c3[nH]c5ccccc5c3C(c3cccnc3)O4)cc12` (stereo not drawn) [Example 589], which IC50 is on record?
A: 3.38 nM

Q: Which IC50 does the source give for `CNC(=O)c1c(-c2ccc(F)cc2)oc2cc(N(C)S(C)(=O)=O)c(-c3ccc4c(c3)-c3[nH]c5ccccc5c3C(C(C)(C)C)O4)cc12` (stereo not drawn) [Example 590] here?
A: 44.1 nM

Q: Which IC50 does the source give for `CNC(=O)c1c(-c2ccc(F)cc2)oc2cc(N(C)S(C)(=O)=O)c(-c3cccc(-c4cc5cc(F)ccc5n4CCO)c3)cc12` [Example 598] here?
A: 3.43 nM

Q: `CNC(=O)c1c(-c2ccc(F)cc2)oc2cc(N(C)S(C)(=O)=O)c(-c3ccc(O)c(-c4nc5c(F)cccc5o4)c3)cc12` [Example 606, 5-(3(4-fluorobenzo[d]oxazol-2-yl)-4-hydroxyphenyl)-2(4-fluorophenyl)-N-methyl-6-(N-methylmethylsulfonamido)benzofuran-3-carboxamide] was tested. Which IC50 did it give?
A: 9.32 nM

Q: `CNC(=O)c1c(-c2ccc(F)cc2)oc2cc(N(C)S(C)(=O)=O)c(-c3ccc(O)c(-c4nc5c(Cl)cccc5o4)c3)cc12` [Example 607] was tested. Which IC50 did it give?
A: 27.1 nM

Q: Which IC50 does the source give for `CNC(=O)c1c(-c2ccc(F)cc2)oc2cc(N(C)S(C)(=O)=O)c(-c3cc(-c4nc5cccc(F)c5o4)ccc3O)cc12` [Example 611] here?
A: 11.1 nM

Same assay, conditions: Hepatitis C virus, 96 h, read-out: Replicon 1b IC50 (nM), HCV genotype 1b replicon cells, 96 hours incubation, NS3/4A ELISA readout

Q: For `CNC(=O)c1c(-c2ccc(F)cc2)oc2cc(N(C)S(C)(=O)=O)c(-c3cccc(-c4cc5ccccc5[nH]4)c3)cc12` [Example 366, 5-(3-(1H-indol-2-yl)phenyl)-2-(4-fluorophenyl)-N-methyl-6-(N-methylmethylsulfonamido)benzofuran-3-carboxamide], which IC50 is on record?
A: 4.2 nM

Q: How did the IC50 turn out when `CNC(=O)c1c(-c2ccc(F)cc2)oc2cc(N(C)S(C)(=O)=O)c(-c3cccc(-c4[nH]c5ccccc5c4Cl)c3)cc12` [Example 381] was run?
A: 5.1 nM

Q: For `CNC(=O)c1c(-c2ccc(F)cc2)oc2cc(N(C)S(C)(=O)=O)c(-c3cccc(-c4[nH]c5ccccc5c4Br)c3)cc12` [Example 382, 5-(3-(3-bromo-1H-indol-2-yl)phenyl)-2-(4-fluorophenyl)-N-methyl-6-(N-methylmethylsulfonamido)benzofuran-3-carboxamide], which IC50 is on record?
A: 8.9 nM

Q: How did the IC50 turn out when `CNC(=O)c1c(-c2ccc(F)cc2)oc2cc(N(C)S(C)(=O)=O)c(-c3cccc(-c4[nH]c5ncccc5c4CO)c3)cc12` [Example 383, 2-(4-fluorophenyl)-5-(3-(3-(hydroxymethyl)-1H-pyrrolo[2,3-b]pyridin-2-yl)phenyl)-N-methyl-6-(N-methylmethylsulfonamido)benzofuran-3-carboxamide] was run?
A: 2.5 nM

Q: How did the IC50 turn out when `CNC(=O)c1c(-c2ccc(F)cc2)oc2cc(N(CCCO)S(C)(=O)=O)c(-c3cccc(-c4nc5ncccc5o4)c3)cc12` [Example 384, 2-(4-fluorophenyl)-6-(N-(3-hydroxypropyl)methylsulfonamido)-N-methyl-5-(3-(oxazolo[4,5-b]pyridin-2-yl)phenyl)benzofuran-3-carboxamide] was run?
A: 0.9 nM

Q: Which IC50 does the source give for `CNC(=O)c1c(-c2ccc(F)cc2)oc2cc(N(CCN3CCOCC3)S(C)(=O)=O)c(-c3cccc(-c4nc5ncccc5o4)c3)cc12` [Example 397, 2-(4-fluorophenyl)-N-methyl-6-(N-(2-morpholinoethyl)methylsulfonamido)-5-(3-(oxazolo[4,5-b]pyridin-2-yl)phenyl)benzofuran-3-carboxamide] here?
A: 3.6 nM

Q: For `CNC(=O)c1c(-c2ccc(F)cc2)oc2cc(N(C)S(=O)(=O)c3ccccc3)c(-c3cccc(-c4nc5ncccc5o4)c3)cc12` [Example 400, 2-(4-fluorophenyl)-N-methyl-6-(N-methylphenylsulfonamido)-5(3-(oxazolo[4,5-b]pyridin-2-yl)phenyl)benzofuran-3-carboxamide], which IC50 is on record?
A: 303 nM

Q: For `CNC(=O)c1c(-c2ccc(F)cc2)oc2cc(N(C)S(C)(=O)=O)c(-c3ccc(OC)c(-c4nc5c(F)cccc5o4)c3)cc12` [Example 402, 5-(3-(4-fluorobenzo[d]oxazol-2-yl)-4-methoxyphenyl)-2-(4-fluorophenyl)-N-methyl-6-(N-methylmethylsulfonamido)benzofuran-3-carboxamide], which IC50 is on record?
A: 0.9 nM

Q: With `CNC(=O)c1c(-c2ccc(F)cc2)oc2cc(N(C)S(C)(=O)=O)c(-c3ccc(OC)c(-c4nc5c(C#N)cccc5o4)c3)cc12` [Example 403, 5-(3-(4-cyanobenzo[d]oxazol-2-yl)-4-methoxyphenyl)-2-(4-fluorophenyl)-N-methyl-6-(N-methylmethylsulfonamido)benzofuran-3-carboxamide] as the molecule, how does the IC50 read?
A: 3.8 nM

Q: For `CNC(=O)c1c(-c2ccc(F)cc2)oc2cc(N(C)S(C)(=O)=O)c(-c3ccc(OC)c(-c4nc5cc(F)ccc5o4)c3)cc12` [Example 404], which IC50 is on record?
A: 2.6 nM

Q: For `CNC(=O)c1c(-c2ccc(F)cc2)oc2cc(N(C)S(C)(=O)=O)c(-c3ccc(Cl)c(-c4nc5c(F)cccc5o4)c3)cc12` [Example 405], which IC50 is on record?
A: 4.7 nM

Q: How did the IC50 turn out when `CNC(=O)c1c(-c2ccc(F)cc2)oc2cc(N(C)S(C)(=O)=O)c(-c3cc(Cl)cc(-c4nc5c(F)cccc5o4)c3)cc12` [Example 406] was run?
A: 15.1 nM

Q: For `CNC(=O)c1c(-c2ccc(F)cc2)oc2cc(N(C)S(C)(=O)=O)c(-c3ccc(OC)c(-c4nc5cccc(C#N)c5o4)c3)cc12` [Example 407], which IC50 is on record?
A: 2.8 nM

Q: `CNC(=O)c1c(-c2ccc(F)cc2)oc2cc(N(C)S(C)(=O)=O)c(-c3ccc(OC)c(-c4nc5c(F)cc(F)cc5o4)c3)cc12` [Example 408] was tested. Which IC50 did it give?
A: 3.8 nM

Q: `CNC(=O)c1c(-c2ccc(F)cc2)oc2cc(N(C)S(C)(=O)=O)c(-c3ccc(OC)c(-c4nc5c(F)ccc(F)c5o4)c3)cc12` [Example 409] was tested. Which IC50 did it give?
A: 2.1 nM

Q: For `CNC(=O)c1c(-c2ccc(F)cc2)oc2cc(N(C)S(C)(=O)=O)c(-c3ccc(OC)c(-c4nc5cc(F)cc(F)c5o4)c3)cc12` [Example 410], which IC50 is on record?
A: 0.5 nM

Same assay, conditions: read-out: 1b IC50; HCV genotype 1b replicon; 96 hours incubation; NS3/4A cell ELISA

Q: How did the IC50 turn out when `CNC(=O)c1c(-c2ccc(F)cc2)oc2cc(N(CCF)S(C)(=O)=O)c(-c3cccc(-c4nc5ncccc5o4)c3)cc12` [Example 581] was run?
A: 0.5 nM
